Reference: patent US10144715B2, “Piperazine derivatives as liver X receptor modulators” (priority 2014, dated 2018)
Like-named read-outs stand apart in the source and are kept apart here.

Tests used:
[1] = target: T1, LXR α LBD protein (Homo sapiens (Human), UniProt Q13133); experiment: LXR α radioligand binding assay (SPA, competition with [3H]TO901317); conditions: read-out: LXRα Binding Ki
[2] = target: T2, Gal4 DNA binding domain fused to the LBD of LXRα in HEK293 cells (Homo sapiens (Human), UniProt Q13133); experiment: LXR luciferase transcriptional reporter gene assay, agonist mode, LXRα; assay type: cell-based
T2 sequence (Q13133 209-447): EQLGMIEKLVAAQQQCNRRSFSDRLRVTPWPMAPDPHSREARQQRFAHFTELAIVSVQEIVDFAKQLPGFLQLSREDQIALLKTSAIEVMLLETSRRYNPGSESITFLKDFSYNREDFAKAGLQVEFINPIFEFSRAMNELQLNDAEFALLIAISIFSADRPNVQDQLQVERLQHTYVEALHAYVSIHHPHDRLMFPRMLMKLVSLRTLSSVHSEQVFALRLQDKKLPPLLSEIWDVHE

[3] = target: T3, Gal4 DNA binding domain fused to the LBD of LXRβ in HEK293 cells (Homo sapiens (Human), UniProt P55055); experiment: cell-based
T3 sequence (P55055 222-460 limits assumed): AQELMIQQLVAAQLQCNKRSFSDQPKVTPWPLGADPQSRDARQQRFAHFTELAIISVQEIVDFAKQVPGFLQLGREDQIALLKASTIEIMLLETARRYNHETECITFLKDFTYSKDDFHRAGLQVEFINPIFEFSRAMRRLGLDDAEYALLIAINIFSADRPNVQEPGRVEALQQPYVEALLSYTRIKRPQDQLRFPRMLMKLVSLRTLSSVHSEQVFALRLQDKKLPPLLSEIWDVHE

[4] = target: T3, Gal4 DNA binding domain fused to the LBD of LXRβ in HEK293 cells; experiment: cell-based; assay type: cell-based
[5] = target: T2, Gal4 DNA binding domain fused to the LBD of LXRα in HEK293 cells; experiment: LXR luciferase transcriptional reporter gene assay, antagonist mode (200 nM T0901317), LXRα; assay type: cell-based
[6] = target: LXR β LBD protein (Homo sapiens (Human), UniProt P55055); experiment: biochemical; assay type: binding; conditions: read-out: LXRβ Binding Ki
Chain of LXR β LBD protein (P55055 222-460 limits assumed): as above

[7] = target: T1, LXR α LBD protein; experiment: Human LXRα coactivator recruitment FRET assay, agonist mode; assay type: biochemical; conditions: agonist mode
Procedure, shortened: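 LXRα- or LXRβ-LBD at 10 nM (2×) mixed with compound in DMSO, then fluorescein-SRC2-3 peptide 200 nM and Tb-anti-GST antibody 20 nM (4×) added; 2 h at rt. Time-resolved FRET read, 100 µs delay, 200 µs window; EC50 from four-parameter fit of percent control.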

[8] = antagonist mode, 200 nM T0901317, HEK293 reporter gene assay
[9] = agonist mode, read-out: Cell LXRα EC50
[10] = antagonist mode, 200 nM T0901317, HEK293 reporter gene assay, read-out: Cell LXRα IC50

T1 sequence (Q13133 209-447): as the sequence (Q13133 209-447) above

Cc1ccc(N2CCN(c3cccc(S(C)(=O)=O)c3)C[C@H]2C(C)C)nc1C1CC1 [40-2, (R)-1-(6-cyclopropyl-5-methylpyridin-2-yl)-2-isopropyl-4-(3-(methylsulfonyl)phenyl)piperazine]
Ki [1]: 173 nM
Cell LXRα efficacy [2]: 3505 (14) %
EC50 ([2]; read-out: Cell LXRα EC50): 3500 nM
EC50 [3]: > 20000 nM
Cell LXRβ efficacy [4]: 146 (93) %
IC50 [4]: 146 nM
Cell LXRα efficacy [5]: 792 (80) %
IC50 ([5]; read-out: Cell LXRα IC50): 792 nM
Ki [6]: 14 nM

Cc1ccc(C2CC2)nc1N1CCN(c2cccc(S(C)(=O)=O)c2)C[C@H]1C(C)C [40-3, (R)-1-(6-cyclopropyl-3-methylpyridin-2-yl)-2-isopropyl-4-(3-(methylsulfonyl)phenyl)piperazine]
Ki [1]: 724 nM
EC50 ([2]; read-out: Cell LXRα EC50): > 20000 nM
EC50 [3]: > 20000 nM
IC50 [4]: 288 nM
Cell LXRβ efficacy [4, 8]: 288 (88) %
Cell LXRα efficacy [5]: 2454 (90) %
IC50 ([5]; read-out: Cell LXRα IC50): 2450 nM
Ki [6]: 61 nM

CC(C)[C@@H]1CN(c2cccc(S(C)(=O)=O)c2)CCN1c1nccc(OC(F)F)n1 [44-2, (R)-4-(difluoromethoxy)-2-(2-isopropyl-4-(3-(methylsulfonyl)phenyl)piperazin-1-yl)pyrimidine]
Ki [1]: 520 nM
Cell LXRα efficacy [2]: 2594 (24) %
EC50 [2]: 2590 nM
Cell LXRβ efficacy [3]: 205 (10) %
EC50 [3]: 205 nM
Cell LXRβ efficacy [4]: 177 (103) %
IC50 [4]: 177 nM
IC50 [5]: 1470 nM
Cell LXRα efficacy [5, 8]: 105%
Ki [6]: 35 nM

CS(=O)(=O)c1cccc(N2CCN(C[C@H]3C[C@@H]4[C@H](C3)C4(F)F)[C@@H](c3ccccc3)C2)c1 [48-64, (S)-1-(((1R,3r,5S)-6,6-difluorobicyclo[3.1.0]hexan-3-yl)methyl)-4-(3-(methylsulfonyl)phenyl)-2-phenylpiperazine]
Ki [1]: 397 nM
Cell LXRα efficacy [2]: 1817 (38) %
EC50 ([2]; read-out: Cell LXRα EC50): 1820 nM
Cell LXRβ efficacy ([3]; Biological Test Example 2, agonist mode): 11%
EC50 ([3]; Biological Test Example 2, agonist mode, read-out: Cell LXRβ EC50): 411 nM
Cell LXRβ efficacy [4, 8]: 85%
IC50 ([4]; antagonist mode, 200 nM T0901317, HEK293 reporter gene assay, read-out: Cell LXRβ IC50): 288 nM
Cell LXRα efficacy [5]: 4272 (104) %
IC50 ([5]; read-out: Cell LXRα IC50): 4270 nM
Ki ([6]; Biological Test Example 1): 38 nM

CC(C)[C@@H]1CN(c2cc(F)c(CO)c(S(C)(=O)=O)c2)CCN1c1ncc(CO)c(C(F)(F)F)n1 [Cpd No 11-6, (R)-(2-fluoro-4-(4-(5-(hydroxymethyl)-4-(trifluoromethyl)pyrimidin-2-yl)-3-isopropylpiperazin-1-yl)-6-(methylsulfonyl)phenyl)methanol]
Ki [1]: 71 nM
Cell LXRα efficacy [2]: 216 (58) %
EC50 [2, 9]: 216 nM
EC50 [3]: 16 nM
Cell LXRβ efficacy ([3]; agonist mode): 16 (46) %
IC50 [4]: 1360 nM
Cell LXRβ efficacy [4, 8]: 1355 (65) %
IC50 [5, 10]: 3860 nM
Ki [6]: 2 nM

CC(C)[C@@H]1CN(c2ccc(F)c(S(C)(=O)=O)c2)CCN1c1ncc(C(N)=O)c(C(F)(F)F)n1 [Cpd No 17-2, (R)-2-(4-(4-fluoro-3-(methylsulfonyl)phenyl)-2-isopropylpiperazin-1-yl)-4-(trifluoromethyl)pyrimidine-5-carboxamide]
Ki [1]: 876 nM
Cell LXRα efficacy [2]: 1789 (17) %
EC50 [2, 9]: 1790 nM
Cell LXRβ efficacy [3]: 91 (10) %
EC50 [3]: 91 nM
Cell LXRβ efficacy [4]: 439 (97) %
IC50 [4]: 439 nM
Cell LXRα efficacy [5]: 3715 (97) %
IC50 [5, 10]: 3720 nM
Ki [6]: 58 nM

CC(C)[C@@H]1CN(c2ccc(F)c(S(C)(=O)=O)c2Cl)CCN1c1ncc(Cl)c(C2CC2)n1 [Cpd No 22-2, (R)-5-chloro-2-(4-(2-chloro-4-fluoro-3-(methylsulfonyl)phenyl)-2-isopropylpiperazin-1-yl)-4-cyclopropylpyrimidine]
Cell LXRα efficacy [2]: 1227 (7) %
EC50 ([2]; read-out: Cell LXRα EC50): 1230 nM
Cell LXRβ efficacy [3]: 750 (10) %
EC50 [3]: 750 nM
Cell LXRβ efficacy [4]: 2144 (96) %
IC50 [4]: 2140 nM
Cell LXRα efficacy [5]: 3610 (83) %
IC50 ([5]; read-out: Cell LXRα IC50): 3610 nM
Ki [6]: 172 nM
EC50 [7]: 271 nM
FRET LXRα efficacy [7]: 12%

CC(C)[C@@H]1CN(c2ccc(F)c(S(C)(=O)=O)c2)CCN1c1ncc(Cc2ccc(C(C)(C)O)cc2)c(C(F)(F)F)n1 [Cpd No 31-1, (R)-2-(4-((2-(4-(4-fluoro-3-(methylsulfonyl)phenyl)-2-isopropylpiperazin-1-yl)-4-(trifluoromethyl)pyrimidin-5-yl)methyl)phenyl)propan-2-ol]
Ki [1]: 159 nM
Cell LXRα efficacy [2]: 2718 (7) %
EC50 ([2]; read-out: Cell LXRα EC50): 2720 nM
EC50 [3]: > 20000 nM
IC50 [4]: 115 nM
Cell LXRβ efficacy [4, 8]: 115 (124) %
Cell LXRα efficacy [5]: 443 (98) %
IC50 ([5]; read-out: Cell LXRα IC50): 443 nM
Ki [6]: 18 nM
